Laboratory results: patent US8791113B2, “2,4-diaryl-substituted [1,8] naphthyridines as kinase inhibitors for use against cancer” (Merck Patent GmbH, priority 2010, dated 2014)

Experiments:
[1] = system: TGF-beta-induced phosphorylation of Smad2 (Ser465/467) and Smad3 (Ser423/425) in Mv1-Lu cells; assay: Inhibition of Smad2/3 phosphorylation in Mv1Lu cells (PathScan Phospho-Smad2 ELISA); assay type: cell-based, mink Mustela vison; conditions: Neogale vison, Mv1-Lu cells, TGF-beta 1 5 ng/ml, Phospho-Smad2/3 ELISA, read-out: TβR activity (Example 51)
Method in brief: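 Serum-starved mink Mv1-Lu lung epithelial cells were pretreated with compound for 1.5 h, then stimulated 1 h with 5 ng/ml TGF-beta 1 (0.2% DMSO). Phospho-Smad2/3 in lysates was quantified by ELISA against stimulated and unstimulated controls. IC50 was taken from dose-response fits.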

[2] = target: T1, GST-ALK5 (TGF-beta receptor kinase) (Homo sapiens, UniProt P36897); assay: In-vitro (enzyme) kinase flashplate assay: GST-ALK5 phosphorylation of GST-SMAD2 with 33P-ATP; assay type: biochemical; conditions: 384-well flashplate kinase assay, GST-ALK5 / GST-SMAD2, 33P-ATP, 30° C., 45 min; read-out: TβR activity (Example 50)
T1 sequence (P36897 34-503): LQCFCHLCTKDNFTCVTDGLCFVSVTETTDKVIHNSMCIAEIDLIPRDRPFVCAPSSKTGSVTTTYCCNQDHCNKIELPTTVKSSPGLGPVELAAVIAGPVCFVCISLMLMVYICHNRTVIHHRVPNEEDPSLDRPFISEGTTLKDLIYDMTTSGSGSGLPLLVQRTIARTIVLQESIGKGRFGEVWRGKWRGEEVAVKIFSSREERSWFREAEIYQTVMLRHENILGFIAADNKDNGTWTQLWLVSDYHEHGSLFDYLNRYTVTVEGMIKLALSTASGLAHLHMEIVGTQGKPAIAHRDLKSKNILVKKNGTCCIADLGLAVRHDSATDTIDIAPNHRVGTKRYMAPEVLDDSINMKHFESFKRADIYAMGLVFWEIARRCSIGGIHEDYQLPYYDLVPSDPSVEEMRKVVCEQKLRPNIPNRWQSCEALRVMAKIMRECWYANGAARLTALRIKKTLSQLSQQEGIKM
Method in brief: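 Flashplate format: 31.2 nM GST-ALK5, 439 nM GST-SMAD2, 3 mM ATP with 33P-ATP in HEPES/MgCl2/MnCl2/DTT/BSA buffer, pH 7.4, 45 min at 30 °C, 5–10 compound concentrations. EDTA stop, saline washes, radioactivity counted. IC50 calculated from the counts.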

IC50 [1]: < 1000 nM
IC50 [2]: < 1000 nM
SMILES: Cc1ccn(-c2cc(-c3c[nH]c4cnccc34)c3cccnc3n2)n1 [Compound 118, 2-(3-Methyl-pyrazol-1-yl)-4-(1H-pyrrolo[2,3-c]pyridin-3-yl)-[1,8]naphthyridine]
